Measurements: patent publication US8987220B2, “Production of reprogrammed cells with restored potential” (Nupotential, Inc., priority 2005, dated 2015)
“Also recorded” adds a separate entry of the source.

Experiments:
GNMT = GNMT gene expression by real-time RT-PCR (GNMT/GAPD ratio); format: cell-based, bovine
[1] = test system: bovine serial nuclear transfer donor somatic cells; assay: Relative methylated cytosine by reverse-phase HPLC after ATRA treatment; format: cell-based; conditions: 10-50 nM ATRA, cultured until confluent
Procedure: Bovine serial nuclear transfer donor somatic cells (a cell line that has never produced a successful live animal and which is characterized by low blastocyst development rates (<10%, P<0.001) and low pregnancy initiation rates (<1%, P<0.05)) were cultured in T-75 flasks until confluent in growth media (CON), or growth media treated with DMSO, or ATRA (DMSO vehicle); 10 nM, 50 nM, and 100 nM ATRA concentrations were used. Following […] treatment, the cells were collected and DNA from the cells was isolated. The DNA was then completely digested into single nucleotides for reverse-phase HPLC. Reverse-phase HPLC was performed as described by Cezar et al. to measure the relative levels of methylated cytosine residues.

bovine somatic cells = assay: ATRA followed by adipogenic induction cocktail
primary rat hepatocytes = assay: ATRA and adipogenic induction cocktail on primary hepatocytes; format: cell-based
Procedure: Primary rat hepatocytes were grown in media treated with 50-200 nM ATRA. Following treatment, cells were cultured under the same comparative conditions as described above for the bovine somatic cells, except an adipogenic induction cocktail (as described in EXAMPLE 2) was added to the T-75 flasks.

3T3 L1 cells = assay: ATRA followed by osteogenic induction media; format: cell-based, murine
Procedure: 3T3 L1 cells were grown in media treated with 50-200 nM ATRA. Following ATRA treatment, cells were transferred to 6-well plates and exposed to osteogenic induction media containing DMEM, FBS, ascorbic acid 2-phosphate, dexamethasone, beta glycerophosphate, and vitamin D for 21 days.

Oct4, Sox2 and nanog = assay: RT-PCR for stem cell/pluripotency markers after ATRA; format: cell-based, bovine; conditions: after ATRA treatment, data not shown
Procedure: To determine whether differentiation potential was restored, bovine somatic cells were cultured in T-75 flasks until confluent in CON, DMSO, or ATRA media (same RA as in Example 1).

[2] = 50-200 nM ATRA then osteogenic induction 21 days

## CC1=C(/C=C/C(C)=C/C=C/C(C)=C/C(=O)O)C(C)(C)CCC1 [ATRA, all-trans retinoic acid]
GNMT; ATRA-treated growth media, real-time RT-PCR
  GNMT gene expression (ratio of GNMT to GAPD): upregulation
GNMT; prior experiments
  response of GNMT transcription to ATRA: dose response
[1]
  reduction in methylated cytosine compared to CON: 8-10%
Bovine somatic cells; ATRA then adipogenic induction 11-12 days
  oil red-O staining (lipid): positive
Bovine somatic cells; PCR after induction, data not shown
  PPARγ gene expression (adipocyte differentiation marker): induction
Bovine somatic cells; structures similar to embryoid bodies
  cell morphology during exposure to ATRA: significant morphological changes
Primary rat hepatocytes; 50-200 nM ATRA then adipogenic induction media, day 4
  cell proliferation (confluency): proliferated significantly
Primary rat hepatocytes; 50-200 nM ATRA, pronounced within 48 hours of induction media
  cell morphology: Morphological changes
3T3 L1 cells; [2]
  alizarin staining for calcium phosphate mineralization: positive staining; also recorded: calcium phosphate mineralization
  alkaline phosphatase staining for osteoblast-like cells: positive staining
3T3 L1 cells; RT-PCR after ATRA and osteogenic induction
  osteocalcin and cbfa1 expression (osteoblast-specific markers): induction
Oct4, Sox2 and nanog
  expression of Oct4, Sox2 and nanog: upregulation and strong expression
